Test results: patent publication US7763708B2, “Methods and compositions for modulating C5-a-mediated inflammatory responses” (Institute for Protein Science Co., Ltd., priority 2004, dated 2010)
Values joined by “and” are separate entries in the source; they are usually repeats but may differ in a detail not shown here. Equal entries are not always repeated.

Tests used:
C5a = biological target: T1, C5a (Homo sapiens, UniProt P01031); assay: Surface plasmon resonance (Biacore) binding of C-peptides to immobilized C5a; parameters: Complement anaphylatoxin C5a is a 74-amino acid peptide generated from the fifth component of complement (C5); conditions: PBS, 25° C., 10 μl/min, EA-blocked cell subtracted
T1 sequence (P01031 678-751 limits assumed): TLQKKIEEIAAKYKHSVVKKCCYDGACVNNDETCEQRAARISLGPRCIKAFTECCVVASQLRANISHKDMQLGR
Description: Binding interactions between PL37 or C5a with C-peptides were evaluated using surface plasmon resonance (SPR) technology with the Biacore system. PL37 and C5a were covalently immobilized on the CM5 sensor chip by amine coupling methods using N-ethyl-N-(dimethylaminopropyl)carbodiimide/N-hydroxysuccinimide (EDC/NHS) according to the manufacturer's instructions. We activated the surface of the CM5 sensor chip with EDC/NHS for 20 min before injection with PL37-MAP (200 μg/ml in 10 mM sodium carbonate buffer, pH 8.5, over flow cell 2) or C5a (100 μg/ml in 10 mM acetate buffer, pH 5, over flow cell 3). Afterwards, excess NHS was deactivated for 20 min with 1 M ethanolamine hydrochloride (EA), pH 8.5. The reference flow cell was activated with EDC/NHS, and blocked with EA. Coupling was performed at a flow rate of 5 μl/min at 25° C. in PBS. Analyte (30 μl of C-peptide A or B) was injected at 10 μl/min at 25° C. in PBS. Binding interactions were determined by passing samples simultaneously over both the EA-blocked cell and the flow cell with immobilized PL37 or C5a so as to obtain units of resonance response (RU) by subtraction of the background using Biacore software (BIA evaluation).
Binding of C-peptides to C5a was also examined. C5a was covalently coupled to a CM5 sensor chip resulting in a net increase of 5,770 RU. […]

[1] = system: Rat Lethal Shock Model (C5a-mediated); assay: Rat lethal shock induced by anti-Crry antibody following LPS priming; type: in vivo; conditions: 4 mg/kg i.v. 10 min before anti-Crry mAb
Description: Administration of anti-rat Crry mAb (5I2) (Takizawa et al., J. Immunol. 152:3032, 1994) induces lethal shock in rats primed with a trace amount of lipopolysaccharide (LPS) (Matsuo et al., J. Exp. Med. 180:1619, 1994; Mizuno et al., J. Immunol. 162:5477, 1999). With this model, all rats sensitized with 0.05 mg/kg of LPS died within 30 min of injection of mAb 512. Male Wistar rats weighing about 250 g were purchased from Chubu Kagaku Shizai (Nagoya, Japan) and were allowed free access to food and water. Each rat was injected with 0.05 mg/kg of LPS, prepared from a phenol extraction of Salmonella typhosa (Sigma Chemical Co., St. Louis, Mo.) in 250 μl saline. Then, 0.75 mg/kg of 5I2 was administered 20 h later. Ten minutes before the injection of 5I2, saline or C-peptides in saline were injected. All injections were intravenously administered through the tail vein. Animal experiments were carried out according to Nagoya City University Guideline for the Care and Use of Experimental Animals and approved by the Nagoya City University Graduate School of Medical Sciences Animal Care Committee.
Administration of 0.75 mg/kg anti-rat Crry monoclonal antibody (Takizawa et al., J. Immunol. 152:3032, 1994) induces rapid lethal shock in rats primed with 0.05 mg/kg of LPS 20 h earlier (Matsuo et al., J. Exp. Med. 180:1619, 1994; Mizuno et al., J. Immunol. 162:5477, 1999). […] In order to investigate the inhibitory effect of the C-peptides in this model, we injected rats with saline (for the control) or C-peptides in 250 μl of saline 10 min before the 5I2 injection. All rats injected with saline died within 30 min (Table 1). However, all rats injected with 4 mg/kg of Pep-A survived. […] Some of the surviving rats stopped breathing briefly in the first 1 or 2 min after injection of 5I2, but were soon breathing again and about 20-40 min later began moving.

ASTAPARAGLPRLPKFF [Pep-B]
Binding to C5a-coupled flow cell (C5a): did not | Survival rate (%) [1]: 0% | Surviving/total number of rats [1]: died and 0/4
